Data set [1] deals with Actinomyces naeslundii. Description: Antibiofilm activity against Actinomyces naeslundii ATCC 49340 assessed as reduction of biofilm formation by visual analysis. The class given is functional, organism-based.
In data set [2] the test system is Listeria monocytogenes. Description: Growth inhibition of Listeria monocytogenes WSLC 1001 incubated for 24 hrs under aerobic condition by microdilution method. To be noted: in vitro. The class given is organism-based. On the technique in general: Dilution methods test growth across graded concentrations, often in twofold steps.
Data set [3] deals with Escherichia coli. Put plainly: Growth inhibition of Escherichia coli ATCC 15939 incubated for 24 hrs under aerobic condition by microdilution method. The class given is organism-based.
In data set [4] the test system is Candida albicans. Put plainly: Disruption of Candida albicans ATCC 28366 pre-formed mature biofilm assessed as reduction in biofilm biomass at 96 ug/mL after 12 hrs by crystal violet staining based assay. It is filed as functional, organism-based.
Data set [5] has as its system Actinomyces naeslundii. Description: Antibiofilm activity against Actinomyces naeslundii ATCC 49340 assessed as prevention of homogenous biofilm formation up to 96 ug/mL after 24 hrs by crystal violet staining based assay. It is filed as functional, organism-based.
Data set [6] has as its system Streptococcus mutans. Description: Antiadherence activity in FITC-labelled Streptococcus mutans ATCC 25175 assessed as reduction in bacterial adhesion to hydroxylapatite up to 96 ug/mL after 1 hr fluorescence assay. It is filed as functional, organism-based.
The test system of data set [7] is Candida albicans. Put plainly: Growth inhibition of Candida albicans ATCC 28366 up to 96 ug/ml measured after 24 hrs by microdilution method. It is filed as organism-based. The note with it: in vitro.
Data set [8] deals with Streptococcus mutans. Description: Inhibition of planktonic growth of Streptococcus mutans ATCC 25175 up to 96 ug/mL after 24 hrs relative to control. The class given is organism-based.
The test system of data set [9] is Actinomyces naeslundii. Description: Antibiofilm activity against Actinomyces naeslundii ATCC 49340 assessed as inhibition of bacterial adhesion up to 96 ug/mL after 24 hrs by crystal violet staining based assay. The class given is functional, organism-based.
In data set [10] the test system is Porphyromonas gingivalis. Description: Antibiofilm activity against Porphyromonas gingivalis ATCC 33277 assessed as inhibition of biofilm formation up to 96 ug/mL after 24 hrs by crystal violet staining based assay. It is filed as functional, organism-based.
Data set [11] concerns Candida albicans. Put plainly: Antibiofilm activity against Candida albicans ATCC 28366 assessed as reduction of biofilm formation at 24 to 48 ug/mL after 24 hrs by crystal violet staining based assay. It is filed as functional, organism-based.
Data set [12] relates to Candida albicans. Put plainly: Antibiofilm activity against Candida albicans ATCC 28366 assessed as reduction of biofilm formation after 24 hrs by crystal violet staining based assay. It is filed as functional, organism-based.
The test system of data set [13] is Actinomyces naeslundii. Description: Antibiofilm activity against Actinomyces naeslundii ATCC 49340 assessed as reduction of biofilm formation at 48 ug/mL after 24 hrs by crystal violet staining based assay. The class given is functional, organism-based.
In data set [14] the test system is Streptococcus mutans. Description: Antibiofilm activity against Streptococcus mutans ATCC 25175 assessed as inhibition of biofilm formation at 6 to 12 ug/mL after 24 hrs by crystal violet staining-based assay. It is filed as functional, organism-based.
Data set [15] has as its system Pseudomonas aeruginosa. Put plainly: Growth inhibition of Pseudomonas aeruginosa ATCC 10145 incubated for 24 hrs under aerobic condition by microdilution method. It is filed as organism-based.
In data set [16] the test system is Streptococcus mutans. Put plainly: Antibiofilm activity against Streptococcus mutans ATCC 25175 assessed as inhibition of biofilm formation up to 96 ug/mL after 24 hrs by crystal violet staining-based assay. It is filed as functional, organism-based.
Data set [17] has as its system Streptococcus mutans. Put plainly: Disruption of Streptococcus mutans ATCC 25175 pre-formed mature biofilm assessed as reduction in biofilm biomass at 96 ug/mL after 12 hrs by crystal violet staining based assay. The class given is functional, organism-based.
Data set [18] has as its system Fusobacterium nucleatum. Description: Antibiofilm activity against Fusobacterium nucleatum ATCC 25586 assessed as inhibition of biofilm formation up to 96 ug/mL after 24 hrs by crystal violet staining based assay. The class given is functional, organism-based.
For data set [19], the system named is Staphylococcus aureus. Description: Growth inhibition of Staphylococcus aureus ATCC 6538 incubated for 24 hrs under aerobic condition by microdilution method. The note with it: in vitro. The class given is organism-based.
For data set [20], the system named is Limosilactobacillus fermentum. Description: Antibiofilm activity against Lactobacillus fermentum LacB1 assessed as inhibition of biofilm formation up to 96 ug/mL after 24 hrs by crystal violet staining based assay. The class given is functional, organism-based.
The subject of data set [21] is Candida albicans. Description: Antiadherence activity against FITC-labelled Candida albicans ATCC 28366 assessed as reduction in bacterial adhesion to hydroxylapatite up to 96 ug/mL after 1 hr by fluorescence assay relative to control. It is filed as functional.

The source made the active and inactive calls.

For `O=C1N[C@H](Cc2ccc(OCc3ccccc3)cc2)C(=O)N[C@@H]1Cc1ccccc1`, the inhibition entry in [1], in data set [13] and in [16] was “Active” in each case. The MIC in data set [2], in [3], in data set [15] and in [19] was greater than 192 µg/mL in each case. In addition, the outcome in data set [4] and in [17] was inactive. In addition, the outcome in data set [5], in [6], in data set [11], in data set [14] and in [21] was Active. Besides, the “growth inhibition (GI)” value in data set [7] and in data set [8] was “Non-Toxic” in each case. Moreover, the inhibition entry in data set [9], in data set [10], in data set [18] and in [20] was “inactive” each time. In addition, in data set [12], the Activity entry is “Dose-dependent effect”.

On to `O=C1N[C@H](Cc2ccccc2)C(=O)N[C@@H]1Cc1ccccc1`, for which the MIC in [2], in [3], in data set [15] and in data set [19] was greater than 192 µg/mL throughout. Also, in [8], the “growth inhibition (GI)” value is listed as “Non-Toxic”. The inhibition entry in data set [10], in data set [16], in data set [18] and in data set [20] was “inactive” throughout.

In the case of `O=C1N[C@H](Cc2ccccc2)C(=O)N[C@H]1Cc1ccccc1`, the MIC in data set [2], in [3], in data set [15] and in [19] was greater than 192 µg/mL each time. The “growth inhibition (GI)” value in [8] was “Non-Toxic”. Further, the inhibition entry in data set [10], in [16], in [18] and in [20] was “inactive” throughout.

`O=C1N[C@@H](Cc2ccccc2)C(=O)N[C@H]1Cc1ccccc1`: the MIC in data set [2], in [3], in data set [15] and in [19] was greater than 192 µg/mL each time. Moreover, in data set [8], the “growth inhibition (GI)” value was “Non-Toxic”. Besides, the inhibition entry in data set [10], in data set [16], in data set [18] and in data set [20] was “inactive” throughout.

Regarding `O=C1N[C@@H](Cc2ccccc2)C(=O)N[C@H]1COCc1ccccc1`, in [8], the “growth inhibition (GI)” value is on record as “Non-Toxic”. The inhibition entry in data set [10], in data set [16] and in data set [18] was “inactive” each time.

As for `O=C1N[C@H](COCc2ccccc2)C(=O)N[C@H]1COCc1ccccc1`, the “growth inhibition (GI)” value in data set [8] was “Non-Toxic”. Moreover, the inhibition entry in data set [10], in [16] and in data set [18] was “inactive” in each case.

`CCC(C)[C@@H]1NC(=O)[C@H](C(C)CC)NC1=O` (stereo not given in full): in data set [8], the “growth inhibition (GI)” value was “Non-Toxic”. Besides, the inhibition entry in data set [10], in [16] and in data set [18] was “inactive” each time.

Take `N=C(N)NCCC[C@@H]1NC(=O)[C@H](Cc2ccc(O)cc2)NC1=O`: the “growth inhibition (GI)” value in [8] was “Non-Toxic”. For the same compound, the inhibition entry in data set [10], in data set [16] and in data set [18] was “inactive” in each case.

Consider `CC(C)C[C@@H]1NC(=O)[C@H](CC(C)C)NC1=O`, for which, in [8], the “growth inhibition (GI)” value is on record as “Non-Toxic”. The inhibition result in data set [10], in data set [16] and in [18] was “inactive” each time.

For `N=C(N)N(CCC[C@@H]1NC(=O)[C@H](CCCCNC(=O)OCc2ccccc2)NC1=O)[N+](=O)[O-]`, in [8], the “growth inhibition (GI)” value is given as “Non-Toxic”. Moreover, the inhibition entry in [10], in [16] and in [18] was “inactive” throughout.

Turning to `C[C@@H]1NC(=O)[C@H](Cc2ccccc2)NC1=O`, the “growth inhibition (GI)” value in data set [8] is “Non-Toxic”. Further, the inhibition result in data set [10], in data set [16] and in data set [18] was “inactive” throughout.

Turning to `CC(C)[C@@H]1NC(=O)[C@@H](Cc2ccc(OCc3ccccc3)cc2)NC1=O`, the “growth inhibition (GI)” value in [8] is given as “Non-Toxic”. For the same compound, the inhibition result in data set [10], in data set [16] and in [18] was “inactive” throughout.

With `CC(C)C[C@@H]1NC(=O)[C@H](C(C)C)NC1=O`, in [8], the “growth inhibition (GI)” value is “Non-Toxic”. Further, the inhibition result in [10], in [16] and in data set [18] was “inactive” in each case.

In the case of `O=C1N[C@@H](COCc2ccccc2)C(=O)N[C@H]1COCc1ccccc1`, the “growth inhibition (GI)” value in [8] is on record as “Non-Toxic”. Besides, the inhibition entry in data set [10], in data set [16] and in data set [18] was “inactive” in each case.

With `O=C1[C@@H]2CCCN2C(=O)[C@H]2CCCN12`, in [8], the “growth inhibition (GI)” value is listed as “Non-Toxic”. Besides, the inhibition entry in data set [10], in data set [16] and in data set [18] was “inactive” throughout.

In the case of `C[C@@H]1NC(=O)[C@H](C)NC1=O`, the “growth inhibition (GI)” value in [8] is on record as “Non-Toxic”. Further, the inhibition entry in data set [10], in data set [16] and in data set [18] was “inactive” in each case.

As to `CC(C)[C@@H]1NC(=O)[C@H](Cc2ccccc2)NC1=O`, the “growth inhibition (GI)” value in data set [8] was “Non-Toxic”. Moreover, the inhibition result in [10], in data set [16] and in [18] was “inactive” in each case.

Turning to `CC(C)C[C@H]1NC(=O)[C@@H](C(C)C)NC1=O`, the “growth inhibition (GI)” value in data set [8] was “Non-Toxic”. The inhibition result in [10], in data set [16] and in data set [18] was “inactive” each time.

For `CC(C)[C@@H]1NC(=O)[C@H](Cc2ccc(OCc3ccccc3)cc2)NC1=O`, the “growth inhibition (GI)” value in data set [8] is recorded as “Non-Toxic”. The inhibition result in data set [10], in data set [16] and in data set [18] was “inactive” each time.

Take `CC(C)C[C@@H]1NC(=O)[C@@H](Cc2ccc(OCc3ccccc3)cc2)NC1=O`: in [8], the “growth inhibition (GI)” value is recorded as “Non-Toxic”. For the same compound, the inhibition entry in data set [10], in [16] and in data set [18] was “inactive” each time.

For `CC(C)C[C@@H]1NC(=O)[C@@H](C(C)C)NC1=O`, the “growth inhibition (GI)” value in [8] is listed as “Non-Toxic”. Besides, the inhibition result in data set [10], in data set [16] and in data set [18] was “inactive” each time.

Turning to `NCCCC[C@@H]1NC(=O)[C@H](Cc2ccccc2)NC1=O`, the “growth inhibition (GI)” value in data set [8] was “Non-Toxic”. Further, the inhibition entry in data set [10], in [16] and in [18] was “inactive” throughout.

These data come from ChEMBL document CHEMBL4340502, “Anti-biofilm and anti-adherence properties of novel cyclic dipeptides against oral pathogens” (Bioorg Med Chem, 2019).
